Laboratory results: paper PMC11662004 (Communications Chemistry, 2024)

Target: T1, TET2CDΔLCI (Homo sapiens, UniProt Q6N021)
T1 construct: FLAG-[thrombin cleavage site]-SUMO (N); made in house; host or cells: E. coli
Experiment: Continuous reaction monitoring (1H NMR), 2OG decarboxylation
Type: biochemical
Details: for V0 TET2: 20 µM DNA, 100 μM 2OG, 5 μM TET2CDΔLCI; for Relative V0 TET2: relative to reactions without DNA
Method: Double-stranded DNA oligomers were added at a final concentration of 20 µM. Data plotted from two independent replicates (n = 2). Initial rates reported as the mean of two independent replicates (n = 2). TEXT PRINTED IN THE PICTURE: (c) No DNA: V0 (μM min^−1) NgTet1: 0.36; V0 (μM min^−1) TET2: 1.28; Relative V0 NgTet1: 1; Relative V0 TET2: 1 | (c) ^5HC DNA: V0 (μM min^−1) NgTet1: 1.30; V0 (μM min^−1) TET2: 6.34; Relative V0 NgTet1: 3.6; Relative V0 TET2: 5.0 | (c) AT DNA: V0 (μM min^−1) NgTet1: 0.82; V0 (μM min^−1) TET2: 5.78; Relative V0 NgTet1: 2.3; Relative V0 TET2: 4.5 | (c) ^5mC DNA: V0 (μM min^−1) NgTet1: 1.52; V0 (μM min^−1) TET2: 6.79; Relative V0 NgTet1: 4.2; Relative V0 TET2: 5.3
All ^1H NMR spectra were recorded at 25 °C using D2O as a reference for internal deuterium lock on a Bruker Avance III 700 MHz equipped with an inverse TCI cryoprobe in 3 or 5 mm diameter tubes with a total sample volume of 160 or 565 μL, respectively. The water signal was reduced using Perfect Echo excitation sculpting suppression. Chemical shifts are reported in ppm relative to D2O (δH = 4.70 ppm).
Spectrometer settings were determined using a control sample containing all reaction components excluding enzyme. TET enzyme was added to an identical sample, and the resulting assay mixture was transferred to an NMR tube before deposition into the instrument. […] Data acquisition was started following a brief spectrometer setting optimisation (up to 200 s delay between enzyme addition and data acquisition); 8–32 scans were accumulated for a single spectrum, corresponding to 65–179 s of acquisition time. Spectrum recordings were carried out consecutively without delay. Data were processed using automated routines on MestReNova v14.2.0; signals of interest were integrated with absolute intensity scaling. ^1H NMR time courses reported in figures are representative results from two or three independent replicates.

[1] = n = 1, time (min) 5HC DNA 5.78333, AT DNA 5.73333, 5mC DNA 5.58333
[2] = n = 1, time (min) 5HC DNA 8.86667, AT DNA 8.81667, 5mC DNA 8.65
[3] = n = 1, time (min) 5HC DNA 11.95, AT DNA 11.8833, 5mC DNA 11.7333
[4] = n = 1, time (min) 5HC DNA 15.0333, AT DNA 14.9667, 5mC DNA 14.8167
[5] = n = 1, time (min) 5HC DNA 18.1167, AT DNA 18.05, 5mC DNA 17.9
[6] = n = 1, time (min) 5HC DNA 21.2333, AT DNA 21.1333, 5mC DNA 21
[7] = n = 1, time (min) 5HC DNA 24.3333, AT DNA 24.2167, 5mC DNA 24.0667
[8] = n = 1, time (min) 5HC DNA 27.4167, AT DNA 27.3, 5mC DNA 27.15
[9] = n = 1, time (min) 5HC DNA 30.55, AT DNA 30.3833, 5mC DNA 30.2333
[10] = n = 1, time (min) 5HC DNA 33.65, AT DNA 33.4667, 5mC DNA 33.3167
[11] = n = 1, time (min) 5HC DNA 36.7333, AT DNA 36.5333, 5mC DNA 36.4
[12] = n = 1, time (min) 5HC DNA 39.8333, AT DNA 39.6167, 5mC DNA 39.4833
[13] = n = 1, time (min) 5HC DNA 42.9, AT DNA 42.7, 5mC DNA 42.5667
[14] = n = 1, time (min) 5HC DNA 46, AT DNA 45.7833, 5mC DNA 45.6667
[15] = n = 1, time (min) 5HC DNA 49.0833, AT DNA 48.8667, 5mC DNA 48.75
[16] = n = 1, time (min) 5HC DNA 52.1667, AT DNA 51.95, 5mC DNA 51.8333
[17] = n = 1, time (min) 5HC DNA 55.25, AT DNA 55.0333, 5mC DNA 54.9167
[18] = n = 1, time (min) 5HC DNA 58.3167, AT DNA 58.1167, 5mC DNA 58
[19] = n = 1, time (min) 5HC DNA 61.4, AT DNA 61.2667, 5mC DNA 61.1
[20] = n = 2, time (min) 5HC DNA 5.66667, AT DNA 5.66667, 5mC DNA 5.8
[21] = n = 2, time (min) 5HC DNA 8.75, AT DNA 8.75, 5mC DNA 8.88333
[22] = n = 2, time (min) 5HC DNA 11.8333, AT DNA 11.85, 5mC DNA 11.9667
[23] = n = 2, time (min) 5HC DNA 14.9167, AT DNA 14.9333, 5mC DNA 15.05
[24] = n = 2, time (min) 5HC DNA 18.0167, AT DNA 18.0167, 5mC DNA 18.1167
[25] = n = 2, time (min) 5HC DNA 21.1, AT DNA 21.1, 5mC DNA 21.2
[26] = n = 2, time (min) 5HC DNA 24.1833, AT DNA 24.1667, 5mC DNA 24.2833
[27] = n = 2, time (min) 5HC DNA 27.25, AT DNA 27.25, 5mC DNA 27.3667
[28] = n = 2, time (min) 5HC DNA 30.3333, AT DNA 30.3333, 5mC DNA 30.45
[29] = n = 2, time (min) 5HC DNA 33.4167, AT DNA 33.4167, 5mC DNA 33.5333
[30] = n = 2, time (min) 5HC DNA 36.5, AT DNA 36.5, 5mC DNA 36.6167
[31] = n = 2, time (min) 5HC DNA 39.5833, AT DNA 39.5833, 5mC DNA 39.7
[32] = n = 2, time (min) 5HC DNA 42.6667, AT DNA 42.6667, 5mC DNA 42.7833
[33] = n = 2, time (min) 5HC DNA 45.75, AT DNA 45.75, 5mC DNA 45.8667
[34] = n = 2, time (min) 5HC DNA 48.8333, AT DNA 48.8333, 5mC DNA 48.95

| Substance | V0 TET2 [µM/min] | succinate [1] [µM] | succinate [2] [µM] | succinate [3] [µM] | succinate [4] [µM] | succinate [5] [µM] | succinate [6] [µM] | succinate [7] [µM] | succinate [8] [µM] | succinate [9] [µM] | succinate [10] [µM] | succinate [11] [µM] | succinate [12] [µM] | succinate [13] [µM] | succinate [14] [µM] | succinate [15] [µM] | succinate [16] [µM] | succinate [17] [µM] | succinate [18] [µM] | succinate [19] [µM] | also measured |
| --- | --- | --- | --- | --- | --- | --- | --- | --- | --- | --- | --- | --- | --- | --- | --- | --- | --- | --- | --- | --- | --- |
| AT DNA: double-stranded self-complementary 5'-ACC ACA TGT GGT-3', CpG replaced by ApT (DNA ACCACATGTGGT; DNA, backbone and methylation of C not given here; self-complementary duplex) | 5.78 | 39.5956 | 49.5065 | 54.2458 | 57.9674 | 59.2828 | 62.1944 | 62.9572 | 64.7984 | 64.7023 | 65.163 | 66.9776 | 66.6376 | 66.8738 | 68.072 | 67.0651 | 67.7938 | 69.134 | 67.5356 | 68.2246 | succinate [20]: 40.358 µM; succinate [21]: 49.4783 µM; succinate [22]: 54.4351 µM; succinate [23]: 56.62 µM; succinate [24]: 59.0171 µM; succinate [25]: 60.9868 µM; succinate [26]: 62.4531 µM; succinate [27]: 63.5112 µM; succinate [28]: 64.7948 µM; succinate [29]: 64.9179 µM; succinate [30]: 65.839 µM; succinate [31]: 65.6357 µM; succinate [32]: 67.3494 µM; succinate [33]: 68.1347 µM; succinate [34]: 66.7934 µM; Relative V0 TET2: 4.5 |
| 5HC DNA: non-methylated DNA of the same sequence, 5'-ACC ACC GGT GGT-3', non-substrate (DNA ACCACCGGTGGT; DNA, backbone not given here) | 6.34 | 44.3007 | 54.4828 | 59.3102 | 61.4847 | 65.1131 | 67.3764 | 68.0997 | 69.3831 | 70.6241 | 71.0252 | 71.8004 | 71.1327 | 71.8764 | 73.8393 | 72.8966 | 73.2704 | 74.052 | 74.0256 | 74.622 | succinate [20]: 46.0808 µM; succinate [21]: 55.6216 µM; succinate [22]: 60.916 µM; succinate [23]: 64.6085 µM; succinate [24]: 67.8421 µM; succinate [25]: 69.2588 µM; succinate [26]: 70.2836 µM; succinate [27]: 71.3409 µM; succinate [28]: 71.8731 µM; succinate [29]: 71.8297 µM; succinate [30]: 74.102 µM; succinate [31]: 75.5956 µM; succinate [32]: 75.7723 µM; succinate [33]: 76.9891 µM; succinate [34]: 76.9274 µM; Relative V0 TET2: 5.0 |
